Source: ChEMBL document CHEMBL1201862, “PubChem BioAssay data set” (2004)
Calls of active or inactive are those of the source.

Legend:
[1] = target: T1, Replicative DNA helicase DnaB (Mycobacterium tuberculosis, UniProt P9WMR3); assay: DnaB intein splicing inhibitors, dose response, biochemical, cell-free fluorescence (AID 449749); format: functional
T1 sequence (P9WMR3 whole entry): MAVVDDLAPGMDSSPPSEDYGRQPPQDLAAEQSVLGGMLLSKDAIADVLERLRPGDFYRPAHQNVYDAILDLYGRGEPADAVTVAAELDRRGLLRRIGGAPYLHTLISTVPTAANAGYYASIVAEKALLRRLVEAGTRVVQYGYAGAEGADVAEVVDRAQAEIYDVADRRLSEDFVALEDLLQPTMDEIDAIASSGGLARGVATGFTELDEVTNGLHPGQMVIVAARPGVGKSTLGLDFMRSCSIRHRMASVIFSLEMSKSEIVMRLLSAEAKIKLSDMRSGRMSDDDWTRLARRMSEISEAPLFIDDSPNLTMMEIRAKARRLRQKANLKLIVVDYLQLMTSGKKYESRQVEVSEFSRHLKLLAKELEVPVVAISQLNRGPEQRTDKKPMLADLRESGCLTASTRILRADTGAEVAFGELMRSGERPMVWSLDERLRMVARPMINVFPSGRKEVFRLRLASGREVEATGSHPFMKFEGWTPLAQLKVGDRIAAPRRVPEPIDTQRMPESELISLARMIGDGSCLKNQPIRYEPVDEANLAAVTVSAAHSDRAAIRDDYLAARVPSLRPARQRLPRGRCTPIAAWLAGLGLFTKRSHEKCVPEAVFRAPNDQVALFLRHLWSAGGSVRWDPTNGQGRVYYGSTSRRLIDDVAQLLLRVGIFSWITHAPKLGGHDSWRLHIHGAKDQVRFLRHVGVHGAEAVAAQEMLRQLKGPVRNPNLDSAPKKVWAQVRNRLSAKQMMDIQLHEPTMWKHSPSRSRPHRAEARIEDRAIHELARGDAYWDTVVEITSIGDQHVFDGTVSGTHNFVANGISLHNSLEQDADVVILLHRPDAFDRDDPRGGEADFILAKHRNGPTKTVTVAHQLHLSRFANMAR

[2] = target: T2, Protein RecA (Mycobacterium tuberculosis, UniProt P9WHJ3); assay: Fluorescence Cell-Free Homogeneous Dose Retest to Identify Inhibitors of RecA-Intein Splicing Activity. [Related pubchem assays (depositor defined):AID2097, AID2223, AID489010, AID492950]; format: functional
T2 sequence (P9WHJ3 whole entry): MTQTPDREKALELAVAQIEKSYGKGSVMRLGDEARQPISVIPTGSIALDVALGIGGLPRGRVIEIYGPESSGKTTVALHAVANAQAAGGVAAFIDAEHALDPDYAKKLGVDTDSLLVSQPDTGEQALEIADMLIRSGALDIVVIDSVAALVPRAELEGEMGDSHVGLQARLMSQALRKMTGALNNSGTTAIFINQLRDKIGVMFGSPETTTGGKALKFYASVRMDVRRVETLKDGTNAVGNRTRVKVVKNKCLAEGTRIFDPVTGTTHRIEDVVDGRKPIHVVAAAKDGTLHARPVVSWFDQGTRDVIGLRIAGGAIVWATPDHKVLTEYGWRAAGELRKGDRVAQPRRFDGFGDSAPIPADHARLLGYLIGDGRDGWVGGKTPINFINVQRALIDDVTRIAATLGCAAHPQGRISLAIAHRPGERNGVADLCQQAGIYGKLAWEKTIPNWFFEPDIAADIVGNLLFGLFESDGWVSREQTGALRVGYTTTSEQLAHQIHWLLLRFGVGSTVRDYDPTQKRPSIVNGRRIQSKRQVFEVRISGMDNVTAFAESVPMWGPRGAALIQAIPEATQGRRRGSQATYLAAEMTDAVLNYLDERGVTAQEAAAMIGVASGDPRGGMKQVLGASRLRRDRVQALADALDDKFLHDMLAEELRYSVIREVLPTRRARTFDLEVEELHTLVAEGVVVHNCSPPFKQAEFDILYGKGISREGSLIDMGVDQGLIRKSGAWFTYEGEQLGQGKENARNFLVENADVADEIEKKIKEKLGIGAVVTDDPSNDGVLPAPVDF

[3] = target: SWI/SNF-related matrix-associated actin-dependent regulator of chromatin subfamily A member 2 (Homo sapiens, UniProt P51531); assay: Luminescence-based cell-based high throughput dose response assay to identify activators of the function of SWI/SNF related, matrix associated, actin dependent regulator of chromatin, subfamily a, member 2 (SMARCA2, BRM).; format: functional
[4] = Counterscreen for activators of the function of SWI/SNF related, matrix associated, actin dependent regulator of chromatin, subfamily a, member 2 (SMARCA2, BRM): Luminescence-based cell-based high throughput dose response assay to identify non-selective compounds using the VP16 reporter assay.; format: functional
[5] = inhibitors of PGC1a acetylation in cells, dose response, cell-based, cherry-picked samples (AID 720514); format: functional;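 note: potency may reflect raised or lowered acetylation signal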
[6] = target: Kappa-type opioid receptor (Homo sapiens, UniProt P41145); assay: OPRK1 antagonists, late-stage follow-up, cell-based, fluorescence, dose response (AID 652032); format: functional
[7] = NIH/3T3 fibroblast cytotoxicity, dose response, cytotoxicity control for T. cruzi growth inhibitor project, cell-based, cherry-pick samples, set 2 (AID 651817); format: functional; settings: NIH3T3
[8] = Luminescence Cell-Based Dose Retest to Confirm Inhibitors of Cancer Stem Cells. [Related pubchem assays (depositor defined):AID2717, AID2721]; format: functional; settings: Homo sapiens
[9] = target: T3, Bcl-2-related protein A1 (Mus musculus, UniProt Q07440); format: functional;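 note: confirmatory dose–response counterscreen on Bfl-1, used to check hits from a UBC13 polyubiquitin inhibitor campaign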
T3 sequence (Q07440 whole entry): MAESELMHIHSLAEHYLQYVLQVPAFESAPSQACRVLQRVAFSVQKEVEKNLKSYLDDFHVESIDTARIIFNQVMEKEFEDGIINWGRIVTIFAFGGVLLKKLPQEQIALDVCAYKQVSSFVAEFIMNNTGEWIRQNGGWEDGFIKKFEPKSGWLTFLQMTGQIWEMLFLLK

[10] = target: T4, Ubiquitin-conjugating enzyme E2 N (Homo sapiens, UniProt P61088); format: functional
T4 sequence (P61088 whole entry): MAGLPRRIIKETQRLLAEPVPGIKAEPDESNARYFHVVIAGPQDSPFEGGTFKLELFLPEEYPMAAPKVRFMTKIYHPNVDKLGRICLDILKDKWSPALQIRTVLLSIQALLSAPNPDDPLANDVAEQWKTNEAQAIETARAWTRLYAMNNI

[11] = target: T4, Ubiquitin-conjugating enzyme E2 N; format: functional; remark: listed apart in the source
[12] = test system: CHO; assay: cytotoxicity in TLR9-MyD88 CHO cells, dose response, cytotoxicity control for TLR9-MyD88 binding inhibitor project, cell-based, luminescence (AID 588339); format: functional, hamster; settings: Cricetulus griseus;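 note: CHO cells stably coexpressing TLR9 and MyD88 fusions from primary screen; compound exposure lasted 48 hours before viability readout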
[13] = target: Beta Lactamase (Pseudomonas aeruginosa, UniProt Q932Y6); assay: beta-lactamase reporter inhibitor potency, dose response, artefact control for TLR9-MyD88 binding inhibitor project, BLA reporter cells, FRET fluorescence (AID 588341); format: cell-based;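 note: cell based assay in CHO-K1 cells stably expressing beta-lactamase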
[14] = Shn3 3'UTR reporter inhibitors, dose response, cell-based, Clone20 osteoblasts, firefly luciferase, cherry-picked (AID 624132); format: functional;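 note: firefly luciferase luminescence from reporter carrying the Shn3 3'UTR in osteoblasts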
[15] = HepG2 cell cytotoxicity, dose response, cytotoxicity control for Shn3 inhibitor project, CellTiter-Glo, cherry-picked (AID 624134); format: functional, cell-based
[16] = control 3'UTR Renilla luciferase suppression, dose response, counter-screen for Shn3 inhibitor project, cell-based, Clone20-Shn3RL, cherry-picked (AID 624133); format: functional
[17] = target: ATP-binding cassette sub-family B member 6 (Homo sapiens, UniProt Q9NP58); assay: ABCB6 transporter inhibitors, porphyrin accumulation, dose response, flow cytometry, K562-ABCB6 cells, cherry pick 02 (AID 624487); format: functional; settings: read-out: EC50_MICROM
[18] = target: Albumin (Bos taurus, UniProt P02769); assay: Counterscreen for inhibitors of T-cell receptor (TCR)-CD3 interaction: Fluorescence-based biochemical high throughput dose response assay to identify inhibitors of T-cell receptor (TCR)-CD3 interaction using a TAMRA-labeled BSA probe.; format: functional
[19] = target: T5, Calpain-2 catalytic subunit (Sus scrofa, UniProt P43367); assay: pig calpain II inhibitor potency, dose response, biochemical, fluorogenic peptide substrate (AID 1420); format: functional
T5 sequence (P43367 whole entry): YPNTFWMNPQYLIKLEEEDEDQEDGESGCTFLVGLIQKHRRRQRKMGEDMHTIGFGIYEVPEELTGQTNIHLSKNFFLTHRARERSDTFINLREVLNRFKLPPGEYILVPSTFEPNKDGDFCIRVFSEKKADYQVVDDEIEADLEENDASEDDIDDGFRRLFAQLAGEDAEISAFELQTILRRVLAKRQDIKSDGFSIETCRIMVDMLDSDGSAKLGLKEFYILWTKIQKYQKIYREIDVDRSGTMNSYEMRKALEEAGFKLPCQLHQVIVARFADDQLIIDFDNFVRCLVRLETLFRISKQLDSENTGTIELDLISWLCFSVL

[20] = test system: HeLa; assay: HeLa cell cytotoxicity, dose response, cytotoxicity control, ATP luminescence, cherry-pick samples (AID 687004); format: functional, cell-based; settings: Homo sapiens
[21] = cytotoxicity in HeLa cells, dose response, cytotoxicity control, cell-based, plate reader, dry powder (AID 651946); format: functional

Chain of ATP-binding cassette sub-family B member 6 (Q9NP58 whole entry): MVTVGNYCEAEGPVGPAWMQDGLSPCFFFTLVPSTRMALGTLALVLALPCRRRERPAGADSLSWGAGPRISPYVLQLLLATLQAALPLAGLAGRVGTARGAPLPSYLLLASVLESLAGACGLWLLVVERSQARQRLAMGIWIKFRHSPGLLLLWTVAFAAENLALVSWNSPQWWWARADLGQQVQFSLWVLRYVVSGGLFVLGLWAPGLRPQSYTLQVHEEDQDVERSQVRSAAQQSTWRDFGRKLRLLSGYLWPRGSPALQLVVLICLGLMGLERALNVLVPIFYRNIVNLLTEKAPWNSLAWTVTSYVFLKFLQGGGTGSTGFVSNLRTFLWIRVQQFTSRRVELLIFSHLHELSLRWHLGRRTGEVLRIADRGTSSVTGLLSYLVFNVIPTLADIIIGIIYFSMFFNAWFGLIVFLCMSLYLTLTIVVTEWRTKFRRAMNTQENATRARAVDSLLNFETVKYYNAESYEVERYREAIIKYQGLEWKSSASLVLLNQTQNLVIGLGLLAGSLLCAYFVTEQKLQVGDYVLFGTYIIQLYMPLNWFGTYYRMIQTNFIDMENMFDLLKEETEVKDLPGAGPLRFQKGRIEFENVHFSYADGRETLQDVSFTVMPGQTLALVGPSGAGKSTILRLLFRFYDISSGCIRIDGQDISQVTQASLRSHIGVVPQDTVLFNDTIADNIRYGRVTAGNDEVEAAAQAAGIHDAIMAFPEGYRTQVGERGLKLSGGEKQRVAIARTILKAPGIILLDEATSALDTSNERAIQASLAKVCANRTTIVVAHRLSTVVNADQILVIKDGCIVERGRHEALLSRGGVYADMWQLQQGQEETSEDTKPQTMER
Chain of SWI/SNF-related matrix-associated actin-dependent regulator of chromatin subfamily A member 2 (P51531 whole entry): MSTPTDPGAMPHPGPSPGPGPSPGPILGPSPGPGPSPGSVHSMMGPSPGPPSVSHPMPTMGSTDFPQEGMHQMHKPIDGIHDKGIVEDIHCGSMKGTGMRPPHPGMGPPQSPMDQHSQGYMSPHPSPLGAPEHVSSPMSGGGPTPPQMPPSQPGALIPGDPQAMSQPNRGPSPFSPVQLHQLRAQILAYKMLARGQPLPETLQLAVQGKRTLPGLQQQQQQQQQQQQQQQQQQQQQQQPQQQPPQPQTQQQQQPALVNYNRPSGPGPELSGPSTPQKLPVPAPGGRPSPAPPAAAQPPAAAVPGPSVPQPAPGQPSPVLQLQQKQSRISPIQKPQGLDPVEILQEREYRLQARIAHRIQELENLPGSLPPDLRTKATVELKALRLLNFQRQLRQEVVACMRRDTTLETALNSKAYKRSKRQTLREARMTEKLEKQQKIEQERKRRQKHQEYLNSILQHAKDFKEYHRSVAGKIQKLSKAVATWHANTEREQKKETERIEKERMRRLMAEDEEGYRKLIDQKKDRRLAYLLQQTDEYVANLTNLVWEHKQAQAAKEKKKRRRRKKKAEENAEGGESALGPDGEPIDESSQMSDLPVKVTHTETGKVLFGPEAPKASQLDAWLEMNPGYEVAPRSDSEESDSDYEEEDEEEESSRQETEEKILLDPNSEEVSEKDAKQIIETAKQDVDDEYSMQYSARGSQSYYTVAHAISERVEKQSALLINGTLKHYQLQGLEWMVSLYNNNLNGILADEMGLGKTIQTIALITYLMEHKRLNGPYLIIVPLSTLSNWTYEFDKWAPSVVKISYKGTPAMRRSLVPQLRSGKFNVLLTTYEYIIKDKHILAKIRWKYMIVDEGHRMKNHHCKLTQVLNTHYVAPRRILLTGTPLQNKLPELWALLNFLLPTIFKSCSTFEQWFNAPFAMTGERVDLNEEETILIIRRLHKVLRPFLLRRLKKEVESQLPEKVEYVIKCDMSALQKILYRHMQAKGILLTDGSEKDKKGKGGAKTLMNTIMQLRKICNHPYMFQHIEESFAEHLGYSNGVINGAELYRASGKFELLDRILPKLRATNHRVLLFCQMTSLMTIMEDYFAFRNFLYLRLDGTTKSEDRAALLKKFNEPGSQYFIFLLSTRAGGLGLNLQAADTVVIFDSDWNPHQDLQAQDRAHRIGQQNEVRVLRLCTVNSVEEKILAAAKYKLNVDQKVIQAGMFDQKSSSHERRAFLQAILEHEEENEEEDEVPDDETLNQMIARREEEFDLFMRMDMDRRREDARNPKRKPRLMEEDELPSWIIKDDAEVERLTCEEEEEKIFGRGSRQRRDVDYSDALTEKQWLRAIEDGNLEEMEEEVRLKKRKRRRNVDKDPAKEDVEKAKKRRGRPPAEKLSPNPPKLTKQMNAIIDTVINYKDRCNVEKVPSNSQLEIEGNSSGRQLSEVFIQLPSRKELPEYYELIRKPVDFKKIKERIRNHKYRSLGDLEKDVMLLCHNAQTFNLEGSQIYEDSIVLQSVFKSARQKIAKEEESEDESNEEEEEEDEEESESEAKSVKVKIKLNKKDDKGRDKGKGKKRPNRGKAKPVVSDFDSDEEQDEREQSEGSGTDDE
Chain of Beta Lactamase (Q932Y6 whole entry): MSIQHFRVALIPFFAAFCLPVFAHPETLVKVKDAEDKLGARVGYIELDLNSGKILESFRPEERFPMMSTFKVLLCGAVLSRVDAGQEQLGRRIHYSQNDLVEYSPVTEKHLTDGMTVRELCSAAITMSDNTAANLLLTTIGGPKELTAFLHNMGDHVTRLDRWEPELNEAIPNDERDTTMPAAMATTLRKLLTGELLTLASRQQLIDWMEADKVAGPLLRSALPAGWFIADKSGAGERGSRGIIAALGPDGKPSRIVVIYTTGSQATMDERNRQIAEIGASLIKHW
Chain of Kappa-type opioid receptor (P41145 whole entry): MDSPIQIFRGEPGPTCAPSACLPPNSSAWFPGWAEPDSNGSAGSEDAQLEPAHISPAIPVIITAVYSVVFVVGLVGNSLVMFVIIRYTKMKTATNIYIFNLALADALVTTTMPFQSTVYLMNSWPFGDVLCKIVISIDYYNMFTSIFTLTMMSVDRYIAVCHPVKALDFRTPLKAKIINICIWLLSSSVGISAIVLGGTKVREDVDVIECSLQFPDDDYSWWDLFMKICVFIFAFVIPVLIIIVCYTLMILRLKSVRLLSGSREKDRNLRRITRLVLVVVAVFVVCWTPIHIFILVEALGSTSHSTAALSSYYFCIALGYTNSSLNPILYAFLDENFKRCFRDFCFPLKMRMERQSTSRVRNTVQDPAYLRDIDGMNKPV
Chain of Albumin (P02769 whole entry): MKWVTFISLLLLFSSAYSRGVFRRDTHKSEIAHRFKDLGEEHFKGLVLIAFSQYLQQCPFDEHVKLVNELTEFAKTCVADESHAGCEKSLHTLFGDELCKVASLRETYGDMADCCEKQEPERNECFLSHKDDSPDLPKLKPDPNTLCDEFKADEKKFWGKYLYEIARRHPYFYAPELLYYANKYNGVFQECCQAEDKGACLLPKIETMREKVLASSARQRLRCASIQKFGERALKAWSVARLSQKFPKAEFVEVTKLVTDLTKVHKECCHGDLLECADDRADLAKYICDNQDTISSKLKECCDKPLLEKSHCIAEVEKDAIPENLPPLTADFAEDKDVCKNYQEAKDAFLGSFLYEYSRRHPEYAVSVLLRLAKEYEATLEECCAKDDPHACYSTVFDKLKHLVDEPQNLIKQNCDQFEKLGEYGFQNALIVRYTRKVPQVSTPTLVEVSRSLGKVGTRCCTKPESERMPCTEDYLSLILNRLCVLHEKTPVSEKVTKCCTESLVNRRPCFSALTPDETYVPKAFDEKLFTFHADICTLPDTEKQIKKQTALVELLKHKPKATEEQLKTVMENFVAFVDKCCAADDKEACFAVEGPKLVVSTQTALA

For Cc1cc(C)cc(OC(=O)C[S+]([O-])c2ccc(C(F)(F)F)cc2[N+](=O)[O-])c1 (stereo not drawn), the AC50 [1] was 4.03 µM (active), the EC50 [2] was 1.3 µM (active) and the EC50 [3] was > 91.2 µM (inactive). For the same compound, the EC50 [4] was > 91.2 µM (inactive) and the AC50 [5] was 10.3 µM (active).

In the case of COC(=O)c1cc(Br)cnc1N1CCCC(NC2CCCCC2)C1 (stereo not drawn), the IC50 [6] is reported as 11.7 µM (inactive).

In the case of C[C@@H]1CN([C@H](C)CO)C(=O)Cc2cc(NS(=O)(=O)c3ccc(Cl)cc3)ccc2O[C@H]1CN(C)S(=O)(=O)c1ccc(Cl)cc1, the AC50 [7] is reported as 16.9 µM (active).

In the case of CC(=O)Nc1ccc(NC(=O)c2nc(S(=O)(=O)Cc3cccc(C)c3)ncc2Cl)cc1, the AC50 [8] is reported as 2.47 µM (active), the IC50 [9] is reported as > 20 µM (inactive) and the IC50 [10] is reported as 13 µM (active). The IC50 [11] was > 20 µM (inactive), the IC50 [12] was 3.54 µM (active) and the AC50 [1] was 7.54 µM (active). For the same compound, the EC50 [2] was 5.24 µM (active), the IC50 [13] was 9.43 µM (active) and the AC50 [14] was 0.528 µM (active). The AC50 [15] was 66.6 µM (active), the AC50 [16] was 6.53 µM (active) and the EC50 [17] was 17.8 µM (active).

With CCc1ccc(NC(=O)NNC(=O)c2ccc3ccccc3c2O)cc1 the IC50 [18] was > 94.1 µM (inactive).

In the case of CC(C)c1ccccc1N=C(S)NN(Cc1ccccc1)c1ccccc1, the IC50 [19] is reported as < 0.4 µM (not active) and the AC50 [20] is reported as > 52 µM (inactive).

In the case of [O-][S+](Cc1cn(-c2ccccc2)nn1)c1nnc(-c2ccc(Cl)cc2)o1 (stereo not drawn), the AC50 [21] is reported as 15.6 µM (active).
